Laboratory results taken from patent US5747482A, “Methods and compositions to inhibit keratinocyte proliferation” (priority 1996, dated 1998).
Read-outs that look alike come from different tables or passages of the source.

How the values were obtained:
[1] = test system: Keratinocytes; experiment: Comparison of keratinocyte growth inhibition by gallium maltol, gallium nitrate and maltol, Example 3; type: cell-based, human; details: gallium nitrate 1×10^-4 M; maltol 3×10^-4 M; 9 days, high Ca^+2 medium; FIG. 3
Excerpt: (§1) Adult human keratinocytes from pooled donor skin were obtained from commercial sources (Cascade Biologics, Portland, Oreg., U.S.A.) and placed in 150 cm^2 bottom area culture flasks using culture medium 154 supplemented with HKGS (about 1%). At 80% confluency, cells were harvested with trypsin and cryopreserved until required.
At the start of the experiments, the required number of vials of keratinocytes was thawed, and the keratinocytes were placed in culture in 24 well plates at about 2,500 cells/cm^2 using the same culture medium as described above. After 24 hours (to allow attachment), the medium was changed to fresh 154 supplemented with HKGS (about 1%) and gallium maltol. Specifically, the fresh medium was prepared by addition of a sufficient amount of a stock solution to provide for six different compositions having a final gallium concentration of 10^-4 M, 10^-5 M, 10^-6 M, 10^-8 M, 10^-10 M, and 10^-12 M. The stock solution was prepared by adding 22.25 mg of gallium maltol to 50 mL of 154 medium and then passing the solution through a 0.2 μm filter and storing at 4° C.
When control cells were about 40% confluent (generally at 4-5 days in culture, all media were removed by aspiration, keratinocyte growth was assayed by crystal violet staining and conversion to cell numbers as described by Wilkinson, et al.^11. Specifically, cell layers rinsed in PBS, which was also aspirated, and 4 drops of crystal violet solution added to each well. The crystal violet solution was prepared by dissolving crystal violet (Fisher Scientific) in PBS:formaldehyde:ethanol (67:3:30%) to give a 0.5 w/v solution. A blank 24-well plate was treated similarly.
Keratinocytes were cultured in 24-well plates for 9 days in the manner described above in Example 2. […]
The cells were then cultured and subsequently evaluated for inhibition of keratinocyte proliferation in the manner described above.

[2] = test system: keratinocyte cells; type: cell-based, human; details: gallium nitrate 5×10^-4 M; maltol 15×10^-4 M; 2 days treatment, 1.2 mM Ca^+2; FIG. 7
Method: as §1
(§2) Culture was renewed for a further 24 hours. At this time, media were removed and discarded, and the cells lysed with 200 μL/well of the solution provided in the Cell Death Detection Kit ELISA Plus (Boehringer Mannheim Biochemicals, Indianapolis, Ind., U.S.A., catalogue number 1774425). Aliquots of the lysate (20 μL) from each of 2 or 3 wells were assayed for nucleosomal enrichment following the kit instructions.
The evaluation of apoptosis of keratinocytes was conducted to determine the relative affect on apoptosis achieved by gallium maltol, gallium nitrate and maltol. Specifically, keratinocyte cells were seeded in 12 well plates seed using culture medium 154. Cultures were continued for 4 days and the medium was changed to medium 154 with 1.2 mM Ca^+2 either without supplement or with one of the following supplements:
1. gallium maltol at a final concentration of 5×10^-4 M;
2. gallium nitrate at a final concentration of 5×10^-4 M;
3. maltol at a concentration of 15×10^-4 M; and
4. CAM at a concentration of 1×10^-5 M.
Three (3) wells were used in each group. The final amount of medium was 300 μL in each well. Culture was continued for 2 days. Bars represent absorbance at 405 nm minus the absorbance at 492 nm.

[3] = oral; cited from earlier work
[4] = test system: keratinocyte cells; type: cell-based, human; details: for induction of apoptosis: 24 hours treatment
Excerpt: as §1
The induction of apoptosis is a critical feature in the programmed cell death as it relates to disease conditions such as cancer, psoriasis, etc. where the uncontrolled proliferation of "immortal" cells such as keratinocytes is a causative feature of the disease. This example compares the ability of gallium maltol to induce apoptosis as compared to negative control (no gallium maltol), and positive control (CAM--an agent known to strongly induce apoptosis). The ability for gallium maltol to effect apoptosis was also measured by the inhibitory effect of ATA.
Specifically, keratinocyte cells were grown using medium 154 in 24 well plates seed with 2,500 cells/cm^2 as described above. Cultures were continued for 3 or 6 days when the cells had achieved about 20 or 60% confluence respectively. On these 2 occasions, media were aspirated from groups of 3 or 4 wells and replaced with high Ca^+2 medium either without supplement or with one of the following supplements:
1. Gallium maltol at a final concentration of one of the following: (a) 5×10^-4 M, (b) 1×10^-4 M, (c) 5×10^-5 M, (d) 1×10^-5 M, and (e) 1×10^-6 M;
4. As in (3) plus CAM at 1×10^-5 or 1×10^-6 M; and
5. As in (3) plus gallium maltol at 1×10^-4 or 2.5×10^-4 M;
as §2

Cc1occc(=O)c1O [maltol, 3-hydroxy-2-methyl-4-pyrone]
effect on keratinocyte proliferation [1]: neither gallium nitrate nor maltol had any effect on keratinocyte proliferation | effect on apoptosis [2]: no significant effect on apoptosis | toxicity when taken orally [3]: very low toxicities when taken orally

O=C(O)C1=CC(=C(c2ccc(O)c(C(=O)O)c2)c2ccc(O)c(C(=O)O)c2)C=CC1=O [ATA, aurin tricarboxylic acid, reference compound]
reduction of CAM-induced apoptosis ([4]; 1×10^-4 M ATA + 1×10^-5 M CAM, cultured 3 days prior, FIG. 5): reduced by half | reduction of CAM-induced apoptosis ([4]; 1×10^-4 M ATA + 1×10^-6 M CAM, cultured 6 days prior, FIG. 6): reduced by half

O=[N+]([O-])[O-].O=[N+]([O-])[O-].O=[N+]([O-])[O-].[Ga+3] [gallium nitrate]
effect on keratinocyte proliferation [1]: neither gallium nitrate nor maltol had any effect on keratinocyte proliferation | effect on apoptosis [2]: no significant effect on apoptosis

CC[C@@]1(O)C(=O)OCc2c1cc1n(c2=O)Cc2cc3ccccc3nc2-1 [CAM, camptothecin, reference compound]
induction of apoptosis ([4]; 1×10^-5 M, cultured 3 days prior, FIG. 5): strongly induced apoptosis | induction of apoptosis ([4]; 1×10^-6 M, cultured 6 days prior, FIG. 6): strongly induced apoptosis

CCc1occc(=O)c1O [ethyl maltol, 3-hydroxy-2-ethyl-4-pyrone]
toxicity when taken orally [3]: very low toxicities when taken orally
